Source: patent US9770349B2, “Nanoporous stents with enhanced cellular adhesion and reduced neointimal formation” (University of Virginia Patent Foundation, priority 2002, dated 2017)
In brackets after ≈: the same amount, converted by molar mass.

Test: Rapamycin solubility in solvent
Type: physicochemical
Conditions: 100% ethanol, organic solvent or mixture, in ethanol (100% ethanol)

Structure (SMILES): CO[C@H]1C[C@@H]2CC[C@@H](C)[C@@](O)(O2)C(=O)C(=O)N2CCCC[C@H]2C(=O)O[C@H]([C@H](C)C[C@@H]2CC[C@@H](O)[C@H](OC)C2)CC(=O)[C@H](C)/C=C(\C)[C@@H](O)[C@@H](OC)C(=O)[C@H](C)C[C@H](C)/C=C/C=C/C=C/1C [rapamycin]
- solubility: ~90 mg/mL (≈ 98.4 mM)
